The term IC50 denotes the concentration needed to halve the response being measured.

For nine compounds, IC50 results are on record in patent publication US20050085447A1, “Pyrido[3,4-d]pyrimidine derivatives as matrix metalloproteinase-13 inhibitors” (Warner-Lambert Company LLC, priority 2003, published 2005).

Type in all cases: biochemical
In assay [1] the target is MMP-13 catalytic domain (Homo sapiens, UniProt P45452). In words: Thiopeptolide substrate hydrolysis inhibition assay, MMP-13 catalytic domain. An excerpt: The methods described below for the inhibition of MMP-13 may also be adapted and used to determine the ability of the compounds of Formula I to inhibit other matrix metalloproteases such as MMP-1, MMP-2, MMP-3, MMP-7, MMP-8, MMP-9, MMP-12, MMP-14, MMP-17, and the like.
Thiopeptolide substrates show virtually no decomposition or hydrolysis at or below neutral pH in the absence of a matrix metalloproteinase enzyme. A typical thiopeptolide substrate commonly utilized for assays is Ac-Pro-Leu-Gly-thioester-Leu-Leu-Gly-OEt. A 100 μL assay mixture will contain 50 mM of N-2-hydroxyethylpiperazine-N′-2-ethanesulfonic acid buffer (“HEPES,” pH 7.0), 10 mM CaCl2, 100 μM thiopeptolide substrate, and 1 mM 5,5′-dithio-bis-(2-nitro-benzoic acid) (DTNB). […] Assays are carried out with and without matrix metalloproteinase inhibitor compounds, and the amount of hydrolysis is compared for a determination of inhibitory activity of the test compounds.

For assay [2], the target named is T1, MMP-1 full-length (Homo sapiens, UniProt P03956).
T1 construct: have also been assayed with MMP-1 full-length
T1 sequence (P03956 100-469): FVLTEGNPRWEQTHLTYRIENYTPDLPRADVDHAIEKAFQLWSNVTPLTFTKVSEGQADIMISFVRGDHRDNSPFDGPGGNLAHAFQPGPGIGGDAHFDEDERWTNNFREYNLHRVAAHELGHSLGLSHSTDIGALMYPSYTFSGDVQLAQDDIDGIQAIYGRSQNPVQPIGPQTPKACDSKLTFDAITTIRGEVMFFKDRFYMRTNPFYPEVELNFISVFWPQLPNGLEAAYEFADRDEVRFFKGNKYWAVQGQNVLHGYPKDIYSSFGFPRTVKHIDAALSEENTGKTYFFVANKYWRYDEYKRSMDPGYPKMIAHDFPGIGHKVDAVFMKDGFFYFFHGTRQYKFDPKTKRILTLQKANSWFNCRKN
As to the kind of experiment: Thiopeptolide substrate hydrolysis inhibition assay, MMP-1 full-length. The following applies: full-length enzyme; read-out: MMP-1FL IC50. An excerpt:
(§1) The assay methods of Biological Examples 1-4 measure the amount by which a test compound reduces the hydrolysis of a thiopeptolide substrate catalyzed by a matrix metalloproteinase enzyme or catalytic domain thereof. It has been shown previously by Ye Qi-Zhuang, Hupe D., and Johnson L. (Current Medicinal Chemistry, 1996;3:407-418) that inhibitor activity against a catalytic domain of an MMP is predictive of the inhibitor activity against the respective full-length MMP enzyme. The methods described below for the inhibition of MMP-13 may also be adapted and used to determine the ability of the compounds of Formula I to inhibit other matrix metalloproteases such as MMP-1, MMP-2, MMP-3, MMP-7, MMP-8, MMP-9, MMP-12, MMP-14, MMP-17, and the like.
(§2) Thiopeptolide substrates show virtually no decomposition or hydrolysis at or below neutral pH in the absence of a matrix metalloproteinase enzyme. A typical thiopeptolide substrate commonly utilized for assays is Ac-Pro-Leu-Gly-thioester-Leu-Leu-Gly-OEt. A 100 μL assay mixture will contain 50 mM of N-2-hydroxyethylpiperazine-N′-2-ethanesulfonic acid buffer (“HEPES,” pH 7.0), 10 mM CaCl2, 100 μM thiopeptolide substrate, and 1 mM 5,5′-dithio-bis-(2-nitro-benzoic acid) (DTNB). […] The change in absorbance at 405 nm is monitored on a Thermo Max microplate reader (molecular Devices, Menlo Park, Calif.) at room temperature (22° C.). The calculation of the amount of hydrolysis of the thiopeptolide substrate is based on E412=13600 M^−1 cm^−1 for the DTNB-derived product 3-carboxy-4-nitrothiophenoxide. Assays are carried out with and without matrix metalloproteinase inhibitor compounds, and the amount of hydrolysis is compared for a determination of inhibitory activity of the test compounds.
(§3) Test compounds were evaluated at various concentrations in order to determine their respective IC50 values, the micromolar concentration of compound required to cause a 50% inhibition of catalytic activity of the respective enzyme.
(§4) Some representative compounds of Formula I have been evaluated for their ability to inhibit MMP-13, MMP-1FL, MMP-3CD, MMP-7FL, MMP-8FL, MMP-9FL, MMP-12CD, MMP-14CD, and/or MMP-17CD, wherein FL means full-length enzyme and CD means a catalytic domain of the full-length enzyme. Test compounds can be evaluated at various concentrations in order to determine their respective IC50 values, the micromolar concentration of compound required to cause a 50% inhibition of the hydrolytic activity of the respective enzyme.
(§5) Certain compounds of Formula I have also been assayed with MMP-1 full-length, MMP-3 catalytic domain, MMP-7 full-length, MMP-8 full-length, MMP-9 full-length, MMP-12 catalytic domain, MMP-14 catalytic domain, and MMP-17 catalytic domain. […] In Biological Table 2, the compound example numbers for the Compound Examples are indicated in the column labelled “Ex. No.”

Assay [3] addresses T2, MMP-9 full-length (Homo sapiens, UniProt P14780).
T2 construct: MMP-8 full-length, MMP-9 full-length, MMP-12 catalytic domain
As to the kind of experiment: Thiopeptolide substrate hydrolysis inhibition assay, MMP-9 full-length. The following applies: full-length enzyme; read-out: MMP-9FL IC50.
Text: as §1, §2, §3, §4, §5

Assay [4] concerns the target T3, MMP-7 full-length (Homo sapiens, UniProt P09237).
T3 construct: MMP-3 catalytic domain, MMP-7 full-length, MMP-8 full-length
T3 sequence (P09237 95-267): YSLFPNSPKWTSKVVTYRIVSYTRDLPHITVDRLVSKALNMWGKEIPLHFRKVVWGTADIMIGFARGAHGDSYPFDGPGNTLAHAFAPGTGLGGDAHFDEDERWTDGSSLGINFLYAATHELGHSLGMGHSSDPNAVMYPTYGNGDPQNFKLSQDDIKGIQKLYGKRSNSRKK
As to the kind of experiment: Thiopeptolide substrate hydrolysis inhibition assay, MMP-7 full-length. The conditions noted are these: full-length enzyme; read-out: MMP-7FL IC50.
Text: as §1, §2, §3, §4, §5

Assay [5] deals with T4, MMP-8 full-length (Homo sapiens, UniProt P22894).
T4 construct: MMP-7 full-length, MMP-8 full-length, MMP-9 full-length
As to the kind of experiment: Thiopeptolide substrate hydrolysis inhibition assay, MMP-8 full-length. The conditions noted are these: full-length enzyme; read-out: MMP-8FL IC50.
Text: as §1, §2, §3, §4, §5

Assay [6] concerns the target T5, MMP-17 catalytic domain (Homo sapiens, UniProt Q9ULZ9).
T5 construct: MMP-14 catalytic domain, and MMP-17 catalytic domain
T5 sequence (Q9ULZ9 126-295 limits assumed): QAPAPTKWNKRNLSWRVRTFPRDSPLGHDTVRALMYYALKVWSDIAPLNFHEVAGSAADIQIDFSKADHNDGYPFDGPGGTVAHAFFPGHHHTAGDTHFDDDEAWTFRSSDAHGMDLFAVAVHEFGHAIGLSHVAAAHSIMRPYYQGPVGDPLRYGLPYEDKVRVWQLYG
As to the kind of experiment: Thiopeptolide substrate hydrolysis inhibition assay, MMP-17 catalytic domain. The following applies: read-out: MMP-17 CD IC50.
Text: as §1, §2, §3, §4, §5

Assay [7] concerns the target T6, MMP-3 catalytic domain (Homo sapiens, UniProt P08254).
T6 construct: MMP-1 full-length, MMP-3 catalytic domain, MMP-7 full-length
As to the kind of experiment: Thiopeptolide substrate hydrolysis inhibition assay, MMP-3 catalytic domain. The conditions noted are these: MES buffer pH 6.0, read-out: MMP-3CD IC50.
Text: as §1, §2, §3
It should be appreciated that the assay buffer used with MMP-3CD was 50 mM N-morpholinoethane sulfonate (“MES”) at pH 6.0 rather than the HEPES buffer at pH 7.0 described above.
as §4, §5

Assay [8] concerns the target T7, MMP-14 catalytic domain (Homo sapiens, UniProt P50281).
T7 construct: MMP-14 catalytic domain, and MMP-17 catalytic domain
In words: Thiopeptolide substrate hydrolysis inhibition assay, MMP-14 catalytic domain. The following applies: read-out: MMP-14CD IC50.
Text: as §1, §2, §3, §4, §5

Setting [9] is: MMP-13 catalytic domain, read-out: MMP-13CD IC50.

Like-named read-outs stand apart in the source and are kept apart here.

T6 sequence (P08254 100-272 limits assumed): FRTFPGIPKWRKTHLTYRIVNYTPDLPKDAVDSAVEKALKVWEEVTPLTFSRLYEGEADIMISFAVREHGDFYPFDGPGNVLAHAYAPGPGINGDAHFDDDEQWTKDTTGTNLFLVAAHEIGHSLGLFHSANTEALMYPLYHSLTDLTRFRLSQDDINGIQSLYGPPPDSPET
T4 sequence (P22894 101-467): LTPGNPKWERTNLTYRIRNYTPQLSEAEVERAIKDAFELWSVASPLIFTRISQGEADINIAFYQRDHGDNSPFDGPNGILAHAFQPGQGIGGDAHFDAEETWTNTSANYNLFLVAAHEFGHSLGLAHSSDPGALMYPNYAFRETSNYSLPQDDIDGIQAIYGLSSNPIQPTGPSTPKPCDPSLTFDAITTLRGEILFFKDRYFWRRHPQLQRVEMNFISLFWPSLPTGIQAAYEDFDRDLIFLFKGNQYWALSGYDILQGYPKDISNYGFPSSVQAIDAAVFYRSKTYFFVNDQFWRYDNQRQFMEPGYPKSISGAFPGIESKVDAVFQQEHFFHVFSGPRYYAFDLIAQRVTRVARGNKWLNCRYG
T2 sequence (P14780 94-707): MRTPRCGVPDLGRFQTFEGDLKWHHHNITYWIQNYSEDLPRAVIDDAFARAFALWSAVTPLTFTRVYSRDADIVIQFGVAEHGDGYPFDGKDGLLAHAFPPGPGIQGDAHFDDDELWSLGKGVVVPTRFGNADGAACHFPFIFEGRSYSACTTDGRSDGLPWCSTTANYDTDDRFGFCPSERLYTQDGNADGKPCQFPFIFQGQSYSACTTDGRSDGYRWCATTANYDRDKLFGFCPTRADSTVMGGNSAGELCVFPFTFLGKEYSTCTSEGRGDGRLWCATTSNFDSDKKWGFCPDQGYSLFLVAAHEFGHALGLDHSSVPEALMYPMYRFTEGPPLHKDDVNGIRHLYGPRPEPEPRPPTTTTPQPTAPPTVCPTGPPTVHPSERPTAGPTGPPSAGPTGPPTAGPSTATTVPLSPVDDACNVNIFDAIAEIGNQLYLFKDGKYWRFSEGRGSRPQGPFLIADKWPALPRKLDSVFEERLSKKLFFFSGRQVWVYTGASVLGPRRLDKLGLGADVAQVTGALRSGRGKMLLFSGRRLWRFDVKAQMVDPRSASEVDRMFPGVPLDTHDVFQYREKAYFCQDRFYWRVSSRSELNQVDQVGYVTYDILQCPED

Consider `O=C(O)c1ccc(Cn2cnc3cnc(C(=O)NCc4ccc(C(F)(F)F)cc4)cc3c2=O)cc1` [Compound Example 12, 4-[4-oxo-6-(4-trifluoromethyl-benzylcarbamoyl)-4H-pyrido[3,4-d]pyrimidin-3-ylmethyl]-benzoic acid], for which the IC50 in assay [1] is 0.097 µM; in assay [2] it was over 100 µM; in assay [3] it was over 100 µM; in assay [4], over 100 µM; in assay [5], over 100 µM; in assay [6] it was over 100 µM. Further, the 50% inhibitory concentration (IC50) in assay [7] and in assay [8] was over 100 µM in each case.
For the compound `O=C(O)c1ccc(Cn2cnc3cnc(C(=O)NCc4cccc(F)c4)cc3c2=O)cc1` [Compound Example 11, 4-[6-(3-fluoro-benzylcarbamoyl)-4-oxo-4H-pyrido[3,4-d]pyrimidin-3-ylmethyl]-benzoic acid], the IC50 is 0.017 µM in assay [1]; over 100 µM in assay [2]; over 100 µM in assay [3]; over 100 µM in assay [4]; over 100 µM in assay [5]; over 100 µM in assay [6]. Further, the IC50 in assay [7] and in assay [8] was over 100 µM throughout.
Take `O=C(O)c1ccc(Cn2cnc3cnc(C(=O)NCc4ccc(F)c(F)c4)cc3c2=O)cc1` [Compound Example 14, 4-[6-(3,4-difluoro-benzylcarbamoyl)-4-oxo-4H-pyrido[3,4-d]pyrimidin-3-ylmethyl]-benzoic acid]: the IC50 is 0.0053 µM in assay [1] (setting [9]); over 100 µM in assay [2]; over 100 µM in assay [3]; over 100 µM in assay [4]; over 100 µM in assay [5]; over 100 µM in assay [6]. Moreover, the IC50 is 42 µM in assay [7] and over 100 µM in assay [8].
`O=C(O)c1ccc(Cn2cnc3cnc(C(=O)NCc4ccc(Cl)cc4)cc3c2=O)cc1` [Compound Example 4, 4-[6-(4-chloro-benzylcarbamoyl)-4-oxo-4H-pyrido [3,4-d]pyrimidin-3-ylmethyl]-benzoic acid]: the IC50 in assay [1] was 0.01 µM; in assay [2] it was over 100 µM; in assay [3] it was over 100 µM; in assay [4], over 100 µM; in assay [6], over 100 µM; in assay [7] it was over 100 µM. Moreover, in assay [8], the IC50 is over 100 µM.
Take `O=C(O)c1ccc(Cn2cnc3cnc(C(=O)NCc4cccc(Cl)c4)cc3c2=O)cc1` [Compound Example 10, 4-[6-(3-chloro-benzylcarbamoyl)-4-oxo-4H-pyrido[3,4-d]pyrimidin-3-ylmethyl]-benzoic acid]: the IC50 was over 100 µM in assay [2]; over 100 µM in assay [3]; over 100 µM in assay [4]; over 100 µM in assay [5]; over 100 µM in assay [6]; 41 µM in assay [7]. Moreover, the IC50 in assay [8] was over 100 µM.
For `O=C(O)c1ccc(Cn2cnc3cnc(C(=O)NCc4cccnc4)cc3c2=O)cc1` [Compound Example 3, 4-{4-oxo-6-[(pyridin-3-ylmethyl)-carbamoyl]-4H-pyrido[3,4-d]pyrimidin-3-ylmethyl}-benzoic acid], the IC50 in assay [1] (setting [9]) was 0.032 µM; in assay [2], over 100 µM; in assay [3], over 100 µM; in assay [4], over 100 µM; in assay [5], over 100 µM; in assay [6], over 100 µM. For the same compound, the IC50 in assay [7] and in assay [8] was over 100 µM throughout.
`O=C(O)c1ccc(Cn2cnc3cnc(C(=O)NCc4cccc(C(F)(F)F)c4)cc3c2=O)cc1` [Compound Example 13, 4-[4-oxo-6-(3-trifluoromethyl-benzylcarbamoyl)-4H-pyrido[3,4-d]pyrimidin-3-ylmethyl]-benzoic acid]: the IC50 in assay [1] is 0.0026 µM; in assay [2], over 100 µM; in assay [3], over 100 µM; in assay [4], over 100 µM; in assay [6], over 100 µM; in assay [7] it was 48 µM. The IC50 in assay [8] was over 100 µM.
Regarding `COc1cc(CNC(=O)c2cc3c(=O)n(Cc4ccc(C(=O)O)cc4)cnc3cn2)ccc1O` [Compound Example 15, 4-[6-(4-hydroxy-3-methoxy-benzylcarbamoyl)-4-oxo-4H-pyrido[3,4-d]pyrimidin-3-ylmethyl]-benzoic acid], the IC50 in assay [1] (setting [9]) is 0.02 µM; in assay [2], over 100 µM; in assay [3] it was over 100 µM; in assay [4], over 30 µM; in assay [5], over 100 µM; in assay [6], over 100 µM. Moreover, the IC50 in assay [7] was over 100 µM; in assay [8] it was over 30 µM.
For the compound `COc1cccc(CNC(=O)c2cc3c(=O)n(Cc4ccc(C(=O)O)cc4)cnc3cn2)c1` [Compound Example 2, 4-[6-(3-methoxy-benzylcarbamoyl)-4-oxo-4H-pyrido[3,4-d]pyrimidin-3-ylmethyl]-benzoic acid], the IC50 was 0.0013 µM in assay [1] (setting [9]); over 100 µM in assay [2]; over 100 µM in assay [3]; over 100 µM in assay [4]; over 100 µM in assay [5]; over 100 µM in assay [6]. Further, the values for the IC50 in assay [7] and in assay [8] were 14 µM and over 100 µM, respectively.
